Measurements published in ChEMBL document CHEMBL4622970, “Design, Synthesis, and Evaluation of New Quinazolinone Derivatives that Inhibit Bloom Syndrome Protein (BLM) Helicase, Trigger DNA Damage at the Telomere Region, and Synergize with PARP Inhibitors” (J Med Chem, 2020).
Calls of active or inactive are those of the source. The rule behind the calls is not given here.

Tests used:
[1] = target: T1, RecQ-like DNA helicase BLM (Homo sapiens, UniProt P54132); assay: Inhibition of BLM in human HCT116 cells assessed as upregulation of CHK2 phosphorylation by Western blot analysis; assay type: cell-based; conditions: HCT-116
T1 sequence (P54132 whole entry): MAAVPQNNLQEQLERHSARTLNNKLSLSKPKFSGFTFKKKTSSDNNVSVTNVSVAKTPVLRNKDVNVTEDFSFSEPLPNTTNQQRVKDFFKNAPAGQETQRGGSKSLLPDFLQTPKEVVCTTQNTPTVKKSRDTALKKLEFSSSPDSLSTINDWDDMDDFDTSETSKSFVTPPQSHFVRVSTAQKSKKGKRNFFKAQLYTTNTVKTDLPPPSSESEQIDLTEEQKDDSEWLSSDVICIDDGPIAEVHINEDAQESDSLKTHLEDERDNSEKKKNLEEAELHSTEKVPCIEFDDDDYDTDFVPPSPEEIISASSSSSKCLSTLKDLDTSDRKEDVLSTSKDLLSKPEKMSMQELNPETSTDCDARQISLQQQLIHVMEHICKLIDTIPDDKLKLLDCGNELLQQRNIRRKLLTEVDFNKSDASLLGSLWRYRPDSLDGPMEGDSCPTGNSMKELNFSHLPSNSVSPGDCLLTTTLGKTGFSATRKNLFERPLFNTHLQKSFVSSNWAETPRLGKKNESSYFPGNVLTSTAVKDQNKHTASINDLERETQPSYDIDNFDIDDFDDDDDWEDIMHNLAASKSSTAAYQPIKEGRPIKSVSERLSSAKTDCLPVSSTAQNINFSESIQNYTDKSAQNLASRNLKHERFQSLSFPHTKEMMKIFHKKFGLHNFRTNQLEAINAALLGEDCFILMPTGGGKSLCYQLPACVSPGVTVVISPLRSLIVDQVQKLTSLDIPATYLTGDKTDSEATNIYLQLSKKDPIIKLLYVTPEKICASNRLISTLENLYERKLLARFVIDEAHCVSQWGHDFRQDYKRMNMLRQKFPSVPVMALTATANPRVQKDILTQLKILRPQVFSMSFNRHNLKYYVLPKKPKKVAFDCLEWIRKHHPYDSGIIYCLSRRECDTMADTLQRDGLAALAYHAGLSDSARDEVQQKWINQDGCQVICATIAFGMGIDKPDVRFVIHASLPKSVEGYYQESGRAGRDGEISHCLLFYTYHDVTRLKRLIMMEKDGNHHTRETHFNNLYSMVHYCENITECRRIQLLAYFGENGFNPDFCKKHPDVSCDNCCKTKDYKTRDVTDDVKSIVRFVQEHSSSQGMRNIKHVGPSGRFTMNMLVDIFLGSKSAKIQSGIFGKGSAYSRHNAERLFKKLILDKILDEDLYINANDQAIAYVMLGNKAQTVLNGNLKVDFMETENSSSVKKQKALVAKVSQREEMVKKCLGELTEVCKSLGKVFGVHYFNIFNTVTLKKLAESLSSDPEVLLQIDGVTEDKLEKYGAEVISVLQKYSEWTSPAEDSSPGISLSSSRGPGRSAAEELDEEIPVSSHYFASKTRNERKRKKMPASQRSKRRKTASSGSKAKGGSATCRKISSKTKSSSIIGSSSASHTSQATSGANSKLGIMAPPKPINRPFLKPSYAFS

[2] = target: T1, RecQ-like DNA helicase BLM; assay: Inhibition of BLM in human HCT116 cells assessed as induction of telomere end loss at 4 uM by fluorescent in situ hybridization; assay type: cell-based; conditions: HCT-116
[3] = target: RecQ-like DNA helicase BLM (Homo sapiens, UniProt P54132, I1168A); assay: Binding affinity to His-tagged BLM I1168A mutant (unknown origin) expressed in Escherichia coli BL21 (DE3) cells by isothermal calorimetric titration assay
Sequence of RecQ-like DNA helicase BLM (Homo sapiens, UniProt P54132, I1168A) (P54132 whole entry I1168A): as the sequence (P54132 whole entry) above, with I1168A counted along it

HCT-116 [4] = assay: Cytotoxicity against human HCT116 cells by MTT assay; assay type: functional, cell-based
[5] = target: T1, RecQ-like DNA helicase BLM; assay: Inhibition of BLM in human HCT116 cells assessed as potentiation of niraparib-induced cytotoxicity at 1 to 2 uM measured after 48 hrs by MTT assay relative to niraparib alone; assay type: cell-based; conditions: HCT-116
[6] = target: T1, RecQ-like DNA helicase BLM; assay: Inhibition of BLM in human HCT116 cells assessed as increase in gamma-H2AX level at 2 uM measured after 24 hrs by Western blot analysis; assay type: cell-based; conditions: HCT-116
[7] = target: T1, RecQ-like DNA helicase BLM; assay: Inhibition of His-tagged BLM (642 to 1296 residues) (unknown origin) expressed in Escherichia coli BL21 (DE3) cells assessed as reduction in DNA unwinding activity using 5'-biotin-labeled forked DNA as substrate preincubated for 1 hr followed by substrate addition and measured after 1 hr by electrophoretic mobility shift assay
[8] = target: T1, RecQ-like DNA helicase BLM; assay: Inhibition of BLM in human HCT116 cells assessed as increase in gamma-H2AX-TRF2 foci colocalization mediated telomere dysfunction-induced foci formation measured after 24 hrs by DAPI staining based immunofluorescence assay; assay type: cell-based; conditions: HCT-116
[9] = target: T1, RecQ-like DNA helicase BLM; assay: Inhibition of BLM in human HCT116 cells assessed as increase in gamma-H2AX foci at 1 to 4 uM measured after 24 hrs by DAPI staining based immunofluorescence assay; assay type: cell-based; conditions: HCT-116
HCT-116 [10] = assay: Antiproliferative activity against human HCT116 cells harboring siBLM assessed as inhibition of cell proliferation at 1 to 2 uM by real-time cellular analysis; assay type: functional, cell-based
[11] = target: T1, RecQ-like DNA helicase BLM; assay: Inhibition of BLM in human HCT116 cells assessed as down regulation of HRR level at 0.5 uM measured after 24 hrs by luciferase reporter gene assay; assay type: cell-based; conditions: HCT-116
HCT-116 [12] = assay: Induction of apoptosis in human HCT116 cells assessed as upregulation of cleaved PARP expression up to 4 uM measured after 48 hrs by Western blot analysis; assay type: functional, cell-based
[13] = target: T1, RecQ-like DNA helicase BLM; assay: Inhibition of BLM in human HCT116 cells assessed as potentiation of BIBR1532-induced cytotoxicity by measuring combination index at 1 to 2 uM measured after 48 hrs by MTT assay; assay type: cell-based; conditions: HCT-116
[14] = target: T1, RecQ-like DNA helicase BLM; assay: Inhibition of BLM in human HCT116 cells assessed as potentiation of niraparib-induced cytotoxicity by measuring combination index at 1 to 2 uM measured after 48 hrs by MTT assay; assay type: cell-based; conditions: HCT-116
[15] = target: T1, RecQ-like DNA helicase BLM; assay: Inhibition of BLM in human HCT116 cells assessed as upregulation of ATR phosphorylation up to 4 uM by Western blot analysis; assay type: cell-based; conditions: HCT-116
HCT-116 [16] = assay: Induction of apoptosis in human HCT116 cells measured after 48 hrs by Annexin V-FITC/propidium iodide staining based flow cytometry; assay type: functional, cell-based
[17] = target: T1, RecQ-like DNA helicase BLM; assay: Inhibition of BLM in human HCT116 cells assessed as upregulation of CHK1 phosphorylation by Western blot analysis; assay type: cell-based; conditions: HCT-116
HCT-116 [18] = assay: Antiproliferative activity against wild-type human HCT116 cells assessed as inhibition of cell proliferation by real-time cellular analysis; assay type: functional, cell-based
[19] = target: T1, RecQ-like DNA helicase BLM; assay: Inhibition of BLM in human HCT116 cells assessed as increase in gamma-H2AX-TRF2 foci colocalization mediated telomere dysfunction-induced foci formation at 1 to 4 uM measured after 24 hrs by DAPI staining based immunofluorescence assay relative to total gamma-H2AX foci; assay type: cell-based; conditions: HCT-116
[20] = target: T1, RecQ-like DNA helicase BLM; assay: Inhibition of BLM in human HCT116 cells assessed as potentiation of cisplatin-induced cytotoxicity by measuring combination index at 1 to 2 uM measured after 48 hrs by MTT assay; assay type: cell-based; conditions: HCT-116
[21] = target: RecQ-like DNA helicase BLM (Homo sapiens, UniProt P54132, H996A); assay: Binding affinity to His-tagged BLM H996A mutant (unknown origin) expressed in Escherichia coli BL21 (DE3) cells by isothermal calorimetric titration assay
Sequence of RecQ-like DNA helicase BLM (Homo sapiens, UniProt P54132, H996A) (P54132 whole entry H996A): as the sequence (P54132 whole entry) above, with H996A counted along it

[22] = target: T1, RecQ-like DNA helicase BLM; assay: Inhibition of BLM in human HCT116 cells assessed as potentiation of olaparib-induced cytotoxicity at 1 to 2 uM measured after 48 hrs by MTT assay relative to olaparib alone; assay type: cell-based; conditions: HCT-116
[23] = target: T1, RecQ-like DNA helicase BLM; assay: Inhibition of BLM in human HCT116 cells assessed as upregulation of ATM phosphorylation up to 4 uM by Western blot analysis; assay type: cell-based; conditions: HCT-116
[24] = target: T1, RecQ-like DNA helicase BLM; assay: Inhibition of BLM in human HCT116 cells assessed as potentiation of olaparib-induced cytotoxicity by measuring combination index at 1 to 2 uM measured after 48 hrs by MTT assay; assay type: cell-based; conditions: HCT-116
HCT-116 [25] = assay: Induction of apoptosis in human HCT116 cells assessed as upregulation of cleaved caspase-7 expression up to 4 uM measured after 48 hrs by Western blot analysis; assay type: functional, cell-based
[26] = target: T1, RecQ-like DNA helicase BLM; assay: Binding affinity to BLM in human HCT116 cells cotransfected with DSB model and I-SceI plasmid assessed as reduction in recruitment of protein to DNA region distant from DSB site at 2 uM measured after 24 hrs by chromatin immunoprecipitation assay; assay type: cell-based; conditions: HCT-116
HCT-116 [27] = assay: Induction of apoptosis in human HCT116 cells assessed as apoptotic cell population at 4 uM measured after 48 hrs by Annexin V-FITC/propidium iodide staining based flow cytometry (reference value: 17.4%); assay type: functional
[28] = target: T1, RecQ-like DNA helicase BLM; assay: Binding affinity to wild-type His-tagged BLM (642 to 1296 residues) (unknown origin) expressed in Escherichia coli BL21 (DE3) cells by isothermal calorimetric titration assay
[29] = target: T1, RecQ-like DNA helicase BLM; assay: Binding affinity to His-tagged BLM (642 to 1296 residues) (unknown origin) expressed in Escherichia coli BL21 (DE3) cells assessed as inhibition of protein interaction with 5'-biotin-labeled forked DNA measured after 1 hr by ELISA
[30] = target: T1, RecQ-like DNA helicase BLM; assay: Binding affinity to BLM in human HCT116 cells cotransfected with DSB model and I-SceI plasmid assessed as reduction in recruitment of protein to DSB site in DNA at 2 uM measured after 24 hrs by chromatin immunoprecipitation assay; assay type: cell-based; conditions: HCT-116
[31] = target: T1, RecQ-like DNA helicase BLM; assay: Inhibition of BLM in human HCT116 cells assessed as increase in gamma-H2AX-TRF2 foci colocalization mediated telomere dysfunction-induced foci formation at 1 uM measured after 24 hrs in presence of […] inhibitor niraparib by DAPI staining based immunofluorescence assay; assay type: cell-based; conditions: HCT-116
HCT-116 [32] = assay: Induction of apoptosis in human HCT116 cells assessed as upregulation of cleaved caspase-3 expression up to 4 uM measured after 48 hrs by Western blot analysis; assay type: functional, cell-based

CCN(CC)CCCNc1cc2nc(/C=C/c3ccc(C(C)C)cc3)n(CCCl)c(=O)c2cc1F
inhibition [1]: Dose-dependent effect
inhibition [2]: Active
Kd [3]: 6540 nM
Activity (HCT-116 [4]): Active
fold change (FC) [5]: 2 to 4
inhibition [6]: Active
IC50 [7]: 800 nM
inhibition [8]: Dose-dependent effect
inhibition [9]: Active
inhibition (HCT-116 [10]): inactive
inhibition [11]: Active
Activity (HCT-116 [12]): Active
CI [13]: 0.5 to 0.8
CI [14]: 0.4 to 0.8
inhibition [15]: Active
Activity (HCT-116 [16]): Dose-dependent effect
inhibition [17]: Dose-dependent effect
inhibition (HCT-116 [18]): Dose-dependent effect
inhibition [19]: > 70%
CI [20]: 0.6 to 0.8
Kd [21]: 1400 nM
fold change (FC) [22]: 2 to 4
inhibition [23]: Active
CI [24]: 0.4 to 0.8
Activity (HCT-116 [25]): Active
Activity [26]: Active
Activity (HCT-116 [27]): 76%
Kd [28]: 760 nM
IC50 [29]: 8700 nM
Activity [30]: Active
inhibition [31]: Active
Activity (HCT-116 [32]): Active
